# Reference: ChEMBL document CHEMBL4000174, “Synthesis and antitumor activity of novel substituted uracil-1'(N)-acetic acid ester derivatives of 20(S)-camptothecins” (Eur J Med Chem, 2017)
# Activity calls are given as the source filed them. The rule behind the calls is not given here.
# Assays:
# [1] = tested on: A549; experiment: Induction of apoptosis in human A549 cells assessed as membrane blebbing after 24 hrs by phase contrast microscopy; format: functional, cell-based
# [2] = tested on: BGC-823; experiment: Antiproliferative activity against human BGC823 cells after 96 hrs by MTT assay; format: functional, cell-based; conditions: BGC-823, 96 h
# [3] = tested on: A549; experiment: Antiproliferative activity against human A549 cells after 96 hrs by MTT assay; format: functional, cell-based; conditions: A549, 96 h
# [4] = tested on: A549; experiment: Induction of apoptosis in human A549 cells assessed as necrotic cells at 75 nM after 24 hrs by Annexin V-FITC/propidium iodide staining based flow cytometry (reference value: 7.62%); format: functional
# [5] = tested on: A549; experiment: Induction of apoptosis in human A549 cells assessed as increase in cleaved caspase-3 level at 8 to 75 nM by Western blot method; format: functional, cell-based
# [6] = tested on: A549; experiment: Cell cycle arrest in human A549 cells assessed as accumulation at G2/M phase at 75 nM after 24 hrs by propidium iodide staining based flow cytometry (reference value: 8.36%); format: functional
# [7] = tested on: Mus musculus; experiment: Toxicity in BALB/c nude mouse xenografted with human BGC823 cells assessed as body weight at 30 mg/kg, ip administered once in a week for two weeks starting from 6 days post tumor transplantation and measured every 3 days during compound dosing for 15 days (reference value: 23.6 g); format: organism-based; conditions: in vivo, 360 h
# [8] = tested on: A549; experiment: Induction of apoptosis in human A549 cells assessed as early apoptotic cells at 25 nM after 24 hrs by Annexin V-FITC/propidium iodide staining based flow cytometry (reference value: 0.50%); format: functional
# [9] = tested on: BGC-823; experiment: Antitumor activity against human BGC823 cells xenografted in BALB/c nude mouse assessed as tumor volume at 60 mg/kg, ip administered once in a week for two weeks starting from 6 days post tumor transplantation measured 27 to 30 days post tumor transplantation relative to control; format: functional
# [10] = tested on: A549; experiment: Cell cycle arrest in human A549 cells assessed as accumulation at G2/M phase at 25 nM after 24 hrs by propidium iodide staining based flow cytometry (reference value: 8.36%); format: functional
# [11] = tested on: A549; experiment: Induction of apoptosis in human A549 cells assessed as necrotic cells at 25 nM after 24 hrs by Annexin V-FITC/propidium iodide staining based flow cytometry (reference value: 7.62%); format: functional
# [12] = tested on: A549; experiment: Cell cycle arrest in human A549 cells assessed as accumulation at S phase at 25 nM after 24 hrs by propidium iodide staining based flow cytometry (reference value: 32.80%); format: functional
# [13] = tested on: Mus musculus; experiment: Toxicity in BALB/c nude mouse xenografted with human BGC823 cells assessed as tumor volume at 30 mg/kg, ip administered once in a week for two weeks starting from 6 days post tumor transplantation and measured every 3 days during compound dosing for 15 days (reference value: […]); conditions: in vivo, 360 h
# [14] = tested on: A549; experiment: Cell cycle arrest in human A549 cells assessed as accumulation at G0/G1 phase at 75 nM after 24 hrs by propidium iodide staining based flow cytometry (reference value: 58.84%); format: functional
# [15] = tested on: BGC-823; experiment: Antitumor activity against human BGC823 cells xenografted in BALB/c nude mouse assessed as tumor growth inhibition at 30 mg/kg, ip administered once in a week for two weeks starting from 6 days post tumor transplantation measured 27 to 30 days post tumor transplantation relative to control; format: functional; conditions: BGC-823, ip, read-out: TGI
# [16] = tested on: A549; experiment: Induction of apoptosis in human A549 cells assessed as late apoptotic cells at 8 nM after 24 hrs by Annexin V-FITC/propidium iodide staining based flow cytometry (reference value: 2.47%); format: functional
# [17] = tested on: Mus musculus; experiment: Antitumor activity in BALB/c nude mouse xenografted with human Bel7402 cells assessed as tumor volume at 30 mg/kg, ip administered once in a week for two weeks starting from 6 days post tumor transplantation measured every 3 days for 21 days (reference value: 511 mm3); conditions: in vivo, 504 h
# [18] = tested on: Mus musculus; experiment: Toxicity in BALB/c nude mouse xenografted with human Bel7402 cells assessed as survival at 60 mg/kg, ip administered once in a week for two weeks starting from 6 days post tumor transplantation measured every 3 days for 21 days; format: organism-based; conditions: in vivo, 504 h
# [19] = tested on: HCT-8; experiment: Antiproliferative activity against human HCT8 cells after 96 hrs by MTT assay; format: functional, cell-based; conditions: HCT-8, 96 h
# [20] = tested on: Mus musculus; experiment: Toxicity in BALB/c nude mouse xenografted with human BGC823 cells assessed as body weight at 60 mg/kg, ip administered once in a week for two weeks starting from 6 days post tumor transplantation and measured every 3 days during compound dosing for 15 days (reference value: 23.6 g); format: organism-based; conditions: in vivo, 360 h
# [21] = tested on: Bel-7402; experiment: Antitumor activity against human Bel7402 cells xenografted in BALB/c nude mouse assessed as tumor growth inhibition at 30 mg/kg, ip administered once in a week for two weeks starting from 6 days post tumor transplantation measured 27 to 30 days post tumor transplantation relative to control; format: functional; conditions: Bel-7402, ip, read-out: TGI
# [22] = tested on: A549; experiment: Cell cycle arrest in human A549 cells assessed as accumulation at G2/M phase at 8 nM after 24 hrs by propidium iodide staining based flow cytometry (reference value: 8.36%); format: functional
# [23] = tested on: H22; experiment: Antitumor activity against mouse H22 cells implanted in Kunming mouse assessed as tumor growth inhibition at 100 mg/kg, ip administered once relative to control; format: functional; conditions: read-out: TGI
# [24] = tested on: Bel-7402; experiment: Antitumor activity against human Bel7402 cells xenografted in BALB/c nude mouse assessed as tumor volume at 60 mg/kg, ip administered once in a week for two weeks starting from 6 days post tumor transplantation measured 27 to 30 days post tumor transplantation relative to control; format: functional
# [25] = tested on: A549; experiment: Induction of apoptosis in human A549 cells assessed as viable cells at 75 nM after 24 hrs by Annexin V-FITC/propidium iodide staining based flow cytometry (reference value: 89.41%); format: functional; conditions: A549, 24 h, read-out: Activity
# [26] = tested on: A549; experiment: Induction of apoptosis in human A549 cells assessed as decrease in Bcl-2 protein level at 8 to 75 nM by Western blot method; format: functional, cell-based
# [27] = tested on: A549; experiment: Induction of apoptosis in human A549 cells assessed as caspase-3 level at 8 to 75 nM by Western blot method; format: functional, cell-based
smiles,measurement,setting,value
CCc1c2c(nc3ccccc13)-c1cc3c(c(=O)n1C2)COC(=O)[C@@]3(CC)OC(=O)Cn1cc(F)c(=O)[nH]c1=O,Activity,[1],Dose-dependent effect
same,IC50,[2],32 nM
same,IC50,[3],27 nM
same,Activity,[4],10.77%
same,Activity,[5],Active
same,Activity,[6],67.07%
same,Activity,[7],19.1 g
same,Activity,[8],10.07%
same,T/C,[9],5.54%
same,Activity,[10],71.74%
same,Activity,[11],9.9%
same,Activity,[12],21.17%
same,tumor volume,[13],334 mm³
same,Activity,[14],2.17%
same,inhibition in vivo at 30 mg/kg,[15],89.7%
same,Activity,[16],13.06%
same,tumor volume,[17],231 mm³
same,Activity,[18],Non-Toxic
same,IC50,[19],7 nM
same,Activity,[20],21.9 g
same,inhibition in vivo at 30 mg/kg,[21],62.6%
same,Activity,[22],31.21%
same,inhibition in vivo at 100 mg/kg,[23],39.1%
same,T/C,[24],24.53%
same,viability at 0.075 µM,[25],30.6%
same,Activity,[26],Active
same,Activity,[27],Active
